No end group written: not given here.

Here are results for 1 substance from PMC11940343, “In Vitro and In Vivo Evaluation of the De Novo Designed Antimicrobial Peptide P6.2 Against a KPC-Producing P. aeruginosa Clinical Isolate” (Biomolecules, 2025).

Data set [1] deals with P. aeruginosa M13513. Nature of the data set: Peptide stability at different temperatures, read out by broth microdilution MIC. The data set is classed as physicochemical, Pseudomonas aeruginosa. Further details: unit not given beside the values. The conditions noted are these: peptide in sterile deionized water, then broth microdilution vs P. aeruginosa M13513. The protocol:
To analyze the stability of the molecule, the peptide was exposed to different temperatures for varying durations. The conditions tested involved incubation at 37 °C for 24 h, at 60 °C for 2 h, and at 100 °C for 15 min. Each condition was set up in a microtube with the peptide dissolved in sterile deionized water. As a control, the peptide was dissolved immediately before testing without temperature incubation. Afterward, the broth microdilution assay was conducted to assess its antimicrobial effectiveness. Additionally, the stability of the peptide in serum was examined. Three microtubes were prepared, each containing sterile deionized water with FCBS (fetal calf bovine serum) 25% (v/v) and the antimicrobial peptide. Two of these samples were incubated at 37 °C for 24 h or 2 h, while the third sample was prepared just before testing without any temperature incubation. As controls, serum alone and peptide without serum were used. The antimicrobial activity was subsequently evaluated through the broth microdilution assay. In order to assess the stability of the AMP, P6.2 was incubated at different temperature conditions or with FBS (fetal bovine serum) for different time periods. The temperature exposures were overnight (ON) at 37 °C, 120 min at 60 °C, and 15 min at 100 °C. P6.2 was incubated with 25% FBS at 37 °C for 2 and 24 h before the experiment or directly at the moment of the experiment. Then, a microdilution assay was performed to test the antimicrobial activity.
A general note: In broth dilution the organism is exposed to a series of concentrations in liquid medium.

The test system of data set [2] is RAW 264.7 (murine macrophage-like ATCC TIB-71). Format: cell-based. The protocol:
(§1) The toxic effect was evaluated indirectly using the colorimetric MTT assay (3-[4,5-dimethylthiazol-2-yl]-2,5-diphenyl tetrazolium bromide, Thermo Fisher Scientific Inc, Massachusetts, USA) on A549 (human lung adenocarcinoma, ATCC CCL-185) and RAW 264.7 (murine macrophage-like ATCC TIB-71) cell lines. Cell lines were kindly provided by Instituto de Virología e Innovaciones Tecnológicas (IVIT), (INTA-CONICET, Buenos Aires, Argentina).
(§2) For the assay, A549 cells were seeded in 96-well plates at a density of 1 × 10^4 cells per well, while RAW 264.7 cells were seeded at a density of 5 × 10^4 cells per well. The plates were incubated for 24 h at 37 °C with 5% CO^2 to allow cell adhesion. The peptide P6.2 was dissolved in distilled water at a stock concentration of 10.24 mg/mL, and serial dilutions were made in RPMI-1640 medium supplemented with 10% fetal bovine serum (FBS, Internegocios S.A., Mercedes, Argentina). The concentrations used to assess P6.2 toxicity were the same as those previously employed in bacterial studies to determine the minimum inhibitory concentration (MIC) in antimicrobial activity assays. For the A549 cell line, P6.2 concentrations ranged from 4 µg/mL to 1024 µg/mL using serial dilutions in culture medium. For the RAW 264.7 cells, P6.2 concentrations ranged from 256 µg/mL to 8 µg/mL, with the concentration range adjusted based on preliminary results obtained from the A549 cell line.
(§3) Peptides were added and plates were incubated for 24 h at 37 °C in a 5% CO2 atmosphere. After incubation, the culture medium was removed, and the cells were washed with PBS (Phosphate Buffered Saline pH 7.2) to remove any remnants of the treatments. Next, 100 µL of MTT solution (0.5 mg/mL in PBS) was added to each well, and the plates were incubated for 0.5 to 3 h at 37 °C. During this period, viable cells reduced MTT, forming visible formazan crystals under a light field microscope (Zeiss Primovent, Oberkochen, Germany), indicating the cell metabolism of the compound.
(§4) At the end of the incubation, the supernatant was removed, and 200 µL of DMSO was added to each well to dissolve the formazan crystals. The plates were shaken to homogenize the contents, and absorbance was measured at 570 nm using a microplate reader (RT2100, Rayto Life and Analytical Sciences Co., Ltd, Shenzhen, China). Triplicates were run for each treatment. Cell viability was calculated by setting the absorbance value obtained for untreated control cells as 100% viability.

The test system of data set [3] is A549 (human lung adenocarcinoma, ATCC CCL-185). The data set is classed as cell-based. As for the experimental part:
as §1, §2, §3, §4

Data set [4] deals with P. aeruginosa M13513. Nature of the data set: Eradication of pre-formed biofilm and cell viability (crystal violet, MTT, CLSM). Format: cell-based, Pseudomonas aeruginosa. Conditions: 1xMIC to 8xMIC. As for the experimental part:
Biofilms of P. aeruginosa M13513 were grown in 96-well flat-bottom polystyrene plates using CAMHB for 24 h. Once the biofilms were established, the supernatant was removed, and 100 µL of CAMHB containing two-fold serial dilutions of antimicrobials were added to each well. The plates were then incubated for an additional 24 h at 37 °C.
For each experiment, two sets of plates were prepared: one for biofilm quantification using the crystal violet (CV) staining method described earlier, and another to assess bacterial cell viability within the biofilm using the MTT assay (3-(4,5-dimethylthiazol-2-yl)-2,5-diphenyltetrazolium bromide). To perform the MTT assay, the medium was carefully removed, and biofilms were washed three times with 200 µL of saline solution. Subsequently, 100 µL of a 0.05% (w/v) MTT solution was added to each well, and the plates were incubated in the dark at 37 °C for 3 h.
Following incubation, the supernatant was discarded, and the resulting formazan crystals were dissolved in 100 µL of DMSO. The samples were then homogenized by orbital shaking for 10 min. Finally, absorbance was measured at 570 nm using a microplate reader. […]
The proportion of live and dead bacteria was determined by analyzing three representative images from each biofilm sample using the ImageJ software 1.52v with the FIJI plugin.

The subject of a further data set is human erythrocytes. Conditions: cited from earlier work. The protocol: Peptide 6.2 (P6.2) is a de novo designed antimicrobial peptide, with an amphipathic alfa helical structure. […] These findings are also in accordance with the previous results obtained for toxicity by hemolytic activity (hemolysis below 5% until 128 µg/mL).

Consider GLLRKWGKKWKEFLRRVWK-NH2 [Peptide P6.2], for which the “MIC after temperature exposure” value in the data set on P. aeruginosa M13513 [1] (37 °C ON (24 h)), against P. aeruginosa M13513 [1] (60 °C 120 min) and against P. aeruginosa M13513 [1] (100 °C 15 min) was 32/64 each time. For the same substance, the LogCC50 in data set [2] was determined as 2.188; in data set [3], 2.100. The results for the “CC50 (cytotoxic concentration 50%)” value in data set [2] (24 h) and in data set [3] (24 h) were 154.1 µg/mL and 125.8 µg/mL, respectively. Moreover, the “bacterial viability inside the pre-formed biofilm” value with P. aeruginosa M13513 [4] (MTT assay, confirmed by SYTO9/PI confocal microscopy) was “significantly decreased the bacterial viability inside the biofilm”. For the same substance, the pre-formed biofilm mass entry with P. aeruginosa M13513 [4] (crystal violet, 24 h treatment) is reported as “diminished the biofilm mass”. Moreover, the erythrocytes lysis entry in the data set on human erythrocytes is reported as “less than 10%”.
